ChEMBL document CHEMBL1136372, “Antibacterial activity of quinolone-macrocycle conjugates” (2003)
Converted amounts (≈) assume the structure as drawn.

Key:
Escherichia coli = assay: Minimum inhibitory concentration against Escherichia coli ATCC 25922; assay type: functional
Staphylococcus aureus = assay: Minimum inhibitory concentration (MIC) against Staphylococcus aureus ATCC 13709; assay type: functional

MIC (Escherichia coli) [µM]	MIC (Staphylococcus aureus) [µM]	Structure (SMILES)
3 (≈ 2.57 µg/mL)	50 (≈ 42.9 µg/mL)	CC1COc2c(N3CCN(C)CC3)c(F)cc3c2N1CC(C(=O)NCC(=O)Nc1ccc2c(c1)C(=O)NCCC(=O)N[C@@H](CCN)C(=O)N[C@H](Cc1ccc(O)cc1)CO2)C3=O (some centres not stated)
0.08 (≈ 0.0265 µg/mL)	0.6 (≈ 0.199 µg/mL)	O=C(O)c1cn(C2CC2)c2cc(N3CCNCC3)c(F)cc2c1=O [CIPROFLOXACIN]
0.2 (≈ 0.157 µg/mL)	1.6 (≈ 1.26 µg/mL)	CN1CCN(c2cc3c(cc2F)C(=O)C(C(=O)Nc2ccc4c(c2)C(=O)NCCC(=O)N[C@@H](CCN)C(=O)N[C@H](Cc2ccc(O)cc2)CO4)CN3C2CC2)CC1 (some centres not stated)
3 (≈ 2.74 µg/mL)	25 (≈ 22.9 µg/mL)	CC1COc2c(N3CCN(C)CC3)c(F)cc3c2N1CC(C(=O)NCCCCCC(=O)Nc1ccc2c(c1)C(=O)NCCC(=O)N[C@@H](CCN)C(=O)N[C@H](Cc1ccc(O)cc1)CO2)C3=O (some centres not stated)
0.78 (≈ 0.282 µg/mL)	25 (≈ 9.03 µg/mL)	CC1COc2c(N3CCN(C)CC3)c(F)cc3c(=O)c(C(=O)O)cn1c23 (configuration not stated) [OFLOXACIN]
3 (≈ 2.4 µg/mL)	13 (≈ 10.4 µg/mL)	CC1COc2c(N3CCN(C)CC3)c(F)cc3c2N1CC(C(=O)Nc1ccc2c(c1)C(=O)NCCC(=O)N[C@@H](CCN)C(=O)N[C@H](Cc1ccc(O)cc1)CO2)C3=O (some centres not stated)
> 100	> 100	NCC[C@@H]1NC(=O)CCNC(=O)c2cc(NC(=O)Cn3cnc4c(N)ncnc43)ccc2OC[C@@H](Cc2ccc(O)cc2)NC1=O
> 100	> 100	NCC[C@@H]1NC(=O)CCNC(=O)c2cc(NC(=O)Cn3cnc4c(O)nc(N)nc43)ccc2OC[C@@H](Cc2ccc(O)cc2)NC1=O
3 (≈ 2.7 µg/mL)	25 (≈ 22.5 µg/mL)	CC1COc2c(N3CCN(C)CC3)c(F)cc3c2N1CC(C(=O)NCCCCC(=O)Nc1ccc2c(c1)C(=O)NCCC(=O)N[C@@H](CCN)C(=O)N[C@H](Cc1ccc(O)cc1)CO2)C3=O (some centres not stated)
> 100	> 100	NCC[C@@H]1NC(=O)CCNC(=O)c2cc(NC(=O)c3cnccn3)ccc2OC[C@@H](Cc2ccc(O)cc2)NC1=O
50 (≈ 32.7 µg/mL)	> 100	CCn1cc(C(=O)Nc2ccc3c(c2)C(=O)NCCC(=O)N[C@@H](CCN)C(=O)N[C@@H](Cc2ccccc2)CO3)c(=O)c2ccc(C)nc21
3 (≈ 2.62 µg/mL)	13 (≈ 11.3 µg/mL)	CC1COc2c(N3CCN(C)CC3)c(F)cc3c2N1CC(C(=O)NCCC(=O)Nc1ccc2c(c1)C(=O)NCCC(=O)N[C@@H](CCN)C(=O)N[C@H](Cc1ccc(O)cc1)CO2)C3=O (some centres not stated)
50 (≈ 33.6 µg/mL)	> 100	CCN1CC(C(=O)Nc2ccc3c(c2)C(=O)NCCC(=O)N[C@@H](CCN)C(=O)N[C@H](Cc2ccc(O)cc2)CO3)C(=O)c2ccc(C)nc21 (some centres not stated)
50 (≈ 33.5 µg/mL)	> 100	CCn1cc(C(=O)Nc2ccc3c(c2)C(=O)NCCC(=O)N[C@H](CCN)C(=O)N[C@@H](Cc2ccc(O)cc2)CO3)c(=O)c2ccc(C)nc21
50 (≈ 33.5 µg/mL)	> 100	CCn1cc(C(=O)Nc2ccc3c(c2)C(=O)NCCC(=O)N[C@@H](CCN)C(=O)N[C@@H](Cc2ccc(O)cc2)CO3)c(=O)c2ccc(C)nc21
3 (≈ 2.66 µg/mL)	25 (≈ 22.1 µg/mL)	CC1COc2c(N3CCN(C)CC3)c(F)cc3c2N1CC(C(=O)NCCCC(=O)Nc1ccc2c(c1)C(=O)NCCC(=O)N[C@@H](CCN)C(=O)N[C@H](Cc1ccc(O)cc1)CO2)C3=O (some centres not stated)
50 (≈ 32.7 µg/mL)	> 100	CCn1cc(C(=O)Nc2ccc3c(c2)C(=O)NCCC(=O)N[C@H](CCN)C(=O)N[C@@H](Cc2ccccc2)CO3)c(=O)c2ccc(C)nc21
> 100	> 100	NCC[C@@H]1NC(=O)CCNC(=O)c2cc(NC(=O)c3cnc4ccccc4c3)ccc2OC[C@@H](Cc2ccc(O)cc2)NC1=O
6 (≈ 5.23 µg/mL)	50 (≈ 43.6 µg/mL)	CC1COc2c(N3CCN(C)CC3)c(F)cc3c2N1CC(C(=O)N(C)CC(=O)Nc1ccc2c(c1)C(=O)NCCC(=O)N[C@@H](CCN)C(=O)N[C@H](Cc1ccc(O)cc1)CO2)C3=O (some centres not stated)
> 100	> 100	CCN1CC(CNc2ccc3c(c2)C(=O)NCCC(=O)N[C@@H](CCN)C(=O)N[C@H](Cc2ccc(O)cc2)CO3)C(=O)c2ccc(C)nc21 (some centres not stated)
> 100	> 100	NCC[C@@H]1NC(=O)CCNC(=O)c2cc(NC(=O)c3ccc4ccccc4c3)ccc2OC[C@@H](Cc2ccc(O)cc2)NC1=O
50 (≈ 33.5 µg/mL)	> 100	CCn1cc(C(=O)Nc2ccc3c(c2)C(=O)NCCC(=O)N[C@H](CCN)C(=O)N[C@H](Cc2ccc(O)cc2)CO3)c(=O)c2ccc(C)nc21
50 (≈ 32.7 µg/mL)	> 100	CCn1cc(C(=O)Nc2ccc3c(c2)C(=O)NCCC(=O)N[C@H](CCN)C(=O)N[C@H](Cc2ccccc2)CO3)c(=O)c2ccc(C)nc21
50 (≈ 32.7 µg/mL)	> 100	CCn1cc(C(=O)Nc2ccc3c(c2)C(=O)NCCC(=O)N[C@@H](CCN)C(=O)N[C@H](Cc2ccccc2)CO3)c(=O)c2ccc(C)nc21
50 (≈ 33.5 µg/mL)	> 100	CCn1cc(C(=O)Nc2ccc3c(c2)C(=O)NCCC(=O)N[C@@H](CCN)C(=O)N[C@H](Cc2ccc(O)cc2)CO3)c(=O)c2ccc(C)nc21

Structure (SMILES)	MIC (Escherichia coli) [µM]	MIC (Staphylococcus aureus) [µM]
CCn1cc(C(=O)O)c(=O)c2ccc(C)nc21 [NALIDIXIC ACID]	3 (≈ 0.697 µg/mL)	75 (≈ 17.4 µg/mL)
